Results from patent publication US8546608B2, “Proteasome inhibitors and methods of using the same” (Cephalon, Inc., priority 2003, dated 2013).

Experiments:
[1] = target: T1, proteasome in Molt-4 cells (human leukemia) (Homo sapiens, UniProt P20618+P28074); type: cell-based; conditions: assay of Example E, inhibition of MOLT4; read-out: MOLT4 (EC50)
T1 sequence (P28074 60-263): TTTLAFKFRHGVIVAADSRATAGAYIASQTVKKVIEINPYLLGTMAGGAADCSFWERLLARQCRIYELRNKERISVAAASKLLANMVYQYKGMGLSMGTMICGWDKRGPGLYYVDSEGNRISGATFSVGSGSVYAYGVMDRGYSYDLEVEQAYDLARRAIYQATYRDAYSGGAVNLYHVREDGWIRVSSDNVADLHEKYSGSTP
T1 sequence (P20618 29-241): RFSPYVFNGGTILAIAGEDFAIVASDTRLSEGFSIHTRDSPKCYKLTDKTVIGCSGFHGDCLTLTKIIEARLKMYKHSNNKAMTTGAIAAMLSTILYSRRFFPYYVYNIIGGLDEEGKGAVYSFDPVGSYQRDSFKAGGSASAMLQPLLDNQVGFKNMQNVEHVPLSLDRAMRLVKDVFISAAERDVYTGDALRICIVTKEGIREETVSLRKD
Method in brief: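 Intact Molt-4 cells (6×10^6 cells/mL) in HEPES-buffered saline were preincubated with inhibitor 15 min at 37 °C, then given cell-permeable MeOSuc-FLF-AFC at 25 μM final.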

[2] = target: T2, 20S Human Erythrocyte Proteasome (HEP) (Homo sapiens, UniProt P20618+P28074); assay: Chymotrypsin-like activity of 20S Human Erythrocyte Proteasome (HEP), IC50 determination; type: biochemical; conditions: assay of Example C, inhibition of HEP
T2 construct: 20S Human Erythrocyte Proteasome (HEP), purchased from Immatics Biotechnologies Inc; purchased Immatics Biotechnologies Inc., Tübingen, Germany; host or cells: human erythrocytes (natural source)
Method in brief: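 20S proteasome at 0.2 μg/mL (about 0.6 nM catalytic sites) in 20 mM Tris with 0.04% SDS, preincubated 15 min at 37° C with inhibitor before Suc-LLVY-AMC (100 μM final). AMC fluorescence read in the linear range; triplicates, IC50 from concentration series.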

CCCCc1ccc(C(=O)N[C@@H](CC(N)=O)C(=O)N[C@@H](CC(C)C)B2O[C@@H]3C[C@@H]4C[C@@H](C4(C)C)[C@]3(C)O2)cc1 [D.8.20, 4-Butylbenzamide, N-[(1S)-1-[[[(1R)-1-[(3aS,4S,6S,7aR)-hexahydro-3a,5,5-trimethyl-4,6-methano-1,3,2-benzodioxaborol-2-yl]-3-methylbutyl]amino]carbonyl]-2-carbamoylethyl]]
EC50 [1]: < 0.2 µM
IC50 [2]: < 0.01 µM

CCOc1ccc(C(=O)N[C@@H](CCCNC(=N)N[N+](=O)[O-])C(=O)N[C@@H](CC(C)C)B2O[C@@H]3C[C@@H]4C[C@@H](C4(C)C)[C@]3(C)O2)cc1 [D.3.91]
EC50 [1]: < 0.2 µM
IC50 [2]: < 0.01 µM

CCCCCCCC(=O)N[C@@H](CCCNC(=N)N[N+](=O)[O-])C(=O)N[C@@H](CC(C)C)B(O)O [E.2.2, Boronic acid, [(1R)-1-[[(2S)-5-[[imino(nitroamino)methyl]amino]-2-[(octanoyl)amino]-1-oxopentyl]amino]-3-methylbutyl]]
EC50 [1]: 0.2 to 2 µM
IC50 [2]: < 0.01 µM

CC(C)C[C@H](NC(=O)[C@H](CCCNC(=N)N[N+](=O)[O-])NC(=O)CCCCC1CCCCC1)B(O)O [D.7.24, Boronic acid, [(1R)-1-[[(2S)-5-[[imino(nitroamino)methyl]amino]-2-[(5-cyclohexylpentanoyl)amino]-1-oxopentyl]amino]-3-methylbutyl]]
EC50 [1]: 0.2 to 2 µM
IC50 [2]: < 0.01 µM

CC(C)C[C@H](NC(=O)[C@H](CCCNC(=N)N[N+](=O)[O-])NC(=O)CCCCCc1ccccc1)B1O[C@@H]2C[C@@H]3C[C@@H](C3(C)C)[C@]2(C)O1 [D.3.131, 6-Phenylhexanamide,N-[(1S)-1-[[[(1R)-1-[(3aS,4S,6S,7aR)-hexahydro-3a,5,5-trimethyl-4,6-methano-1,3,2-benzodioxaborol-2-yl]-3-methylbutyl]amino]carbonyl]-4-[[imino(nitroamino)methyl]amino]butyl]]
EC50 [1]: < 0.2 µM
IC50 [2]: < 0.01 µM

CCCCCCCCC(C)(C)C(=O)N[C@H](C(=O)N[C@@H](CC(C)C)B(O)O)[C@@H](C)O [E.3.6, Boronic acid, [(1R)-1-[[(2S,3R)-3-hydroxy-2-[(2,2 dimethyl-decanoyl)amino]-1-oxobutyl]amino]-3-methylbutyl]]
EC50 [1]: < 0.2 µM
IC50 [2]: < 0.01 µM

CCCCCC(=O)NC[C@H](NC(=O)c1ccc(CCCC)cc1)C(=O)N[C@@H](CC(C)C)B(O)O [E.5.10, Boronic acid, [(1R)-1-[[(2S)-3-(hexanoylamino)-2-[(4-butylbenzoylamino)]-1-oxopropyl]amino]-3-methylbutyl]]
EC50 [1]: < 0.2 µM
IC50 [2]: < 0.01 µM

CC(C)C[C@H](NC(=O)[C@H](CCCNC(=N)N[N+](=O)[O-])NC(=O)Cc1ccccc1I)B(O)O [E.2.13, Boronic acid, [(1R)-1-[[(2S)-5-[[imino(nitroamino)methyl]amino]-2-[[2-(2-iodophenyl)acetyl]amino]-1-oxopentyl]amino]-3-methylbutyl]]
EC50 [1]: 2 to 10 µM
IC50 [2]: < 0.01 µM

CCCCCCCCC(=O)N[C@@H](CCCNC(=N)N[N+](=O)[O-])C(=O)N[C@@H](CC(C)C)B(O)O [E.2.9, Boronic acid, [(1R)-1-[[(2S)-5-[[imino(nitroamino)methyl]amino]-2-[(nonanoyl)amino]-1-oxopentyl]amino]-3-methylbutyl]]
EC50 [1]: 0.2 to 2 µM
IC50 [2]: < 0.01 µM

CCCCCCCCCC(=O)N[C@H](C(=O)N[C@@H](CC(C)C)B1O[C@@H]2C[C@@H]3C[C@@H](C3(C)C)[C@]2(C)O1)[C@@H](C)O [D.8, Decanamide, N-[(1S,2R)-1-[[[(1R)-1-[(3aS,4S,6S,7aR)-hexahydro-3a,5,5-trimethyl-4,6-methano-1,3,2-benzodioxaborol-2-yl]-3-methylbutyl]amino]carbonyl]-2-hydroxypropyl]-]
EC50 [1]: < 0.2 µM
IC50 [2]: < 0.01 µM

Cc1ccc(CSCCC(=O)N[C@@H](CCCNC(=N)N[N+](=O)[O-])C(=O)N[C@@H](CC(C)C)B(O)O)cc1 [D.7.26, Boronic acid, [(1R)-1-[[(2S)-5-[[imino(nitroamino)methyl]amino]-2-[[3-[(4-methylbenzyl)sulfanyl]propanoyl]amino]-1-oxopentyl]amino]-3-methylbutyl]]
EC50 [1]: 2 to 10 µM
IC50 [2]: < 0.01 µM

CCCCCCCCCC(=O)N[C@@H](CCCNC(N)=O)C(=O)N[C@@H](CC(C)C)B(O)O [E.1.29, Boronic acid, [(1R)-1-[[(2S)-2-[(decanoyl)amino]-1-oxo-5-ureido-pentyl]amino]-3-methylbutyl]]
EC50 [1]: 0.2 to 2 µM
IC50 [2]: < 0.01 µM

CC(C)C[C@H](NC(=O)[C@H](CCCNC(=N)N[N+](=O)[O-])NC(=O)CC1CCCCCC1)B(O)O [E.2.29, Boronic acid, [(1R)-1-[[(2S)-5-[[imino(nitroamino)methyl]amino]-2-[(2-cycloheptylacetyl)amino]-1-oxopentyl]amino]-3-methylbutyl]]
EC50 [1]: 2 to 10 µM
IC50 [2]: < 0.01 µM

CC(C)C[C@H](NC(=O)[C@H](CCCNC(=N)N[N+](=O)[O-])NC(=O)Cc1cccc(Cl)c1)B1O[C@@H]2C[C@@H]3C[C@@H](C3(C)C)[C@]2(C)O1 [D.3.128, 2-(3-Chlorophenyl)acetamide,N-[(1S)-1-[[[(1R)-1-[(3aS,4S,6S,7aR)-hexahydro-3a,5,5-trimethyl-4,6-methano-1,3,2-benzodioxaborol-2-yl]-3-methylbutyl]amino]carbonyl]-4-[[imino(nitroamino)methyl]amino]butyl]]
EC50 [1]: 0.2 to 2 µM
IC50 [2]: < 0.01 µM

CC(C)C[C@H](NC(=O)[C@H](CCCNC(=N)N[N+](=O)[O-])NC(=O)CCCCCCCCCO)B(O)O [E.2.67, Boronic acid, [(1R)-1-[[(2S)-5-[[imino(nitroamino)methyl]amino]-2-[(10-hydroxydecanoyl)amino]-1-oxopentyl]amino]-3-methylbutyl]]
EC50 [1]: 2 to 10 µM
IC50 [2]: < 0.01 µM

COc1ccccc1/C=C/C(=O)N[C@@H](CCCNC(=N)N[N+](=O)[O-])C(=O)N[C@@H](CC(C)C)B(O)O [D.7.1, Boronic acid, [(1R)-1-[[(2S)-5-[[imino(nitroamino)methyl]amino]-2-[[(2E)-3-(2-methoxyphenyl)-1-oxoprop-2-enyl]amino]-1-oxopentyl]amino]-3-methylbutyl]]
EC50 [1]: 2 to 10 µM
IC50 [2]: < 0.01 µM

CC(C)C[C@H](NC(=O)[C@@H](NC(=O)c1ccc(Oc2ccccc2)cc1)[C@@H](C)O)B(O)O [E.3.7, Boronic acid, [(1R)-1-[[(2S,3R)-3-hydroxy-2-[(4-Phenoxybenzoyl)amino]-1-oxobutyl]amino]-3-methylbutyl]]
EC50 [1]: < 0.2 µM
IC50 [2]: < 0.01 µM

CC(C)C[C@H](NC(=O)[C@@H](NC(=O)CCCCCCCCCN1C(=O)c2ccccc2C1=O)[C@@H](C)O)B(O)O [E.1.18, Boronic acid, [(1R)-1-[[(2S,3R)-3-hydroxy-2-[[10-(1,3-dioxo-1,3-dihydro-isoindol-2-yl)-decanoyl]amino]-1-oxobutyl]amino]-3-methylbutyl]]
EC50 [1]: < 0.2 µM
IC50 [2]: < 0.01 µM

CCCCC(C)CCC(=O)N[C@@H](CCCNC(=N)N[N+](=O)[O-])C(=O)N[C@@H](CC(C)C)B(O)O (mixture of isomers) [E.2.39, Boronic acid, [(1R)-1-[[(2S)-5-[[imino(nitroamino)methyl]amino]-2-[((RS)-4-methyloctanoyl)amino]-1-oxopentyl]amino]-3-methylbutyl]]
EC50 [1]: 0.2 to 2 µM
IC50 [2]: < 0.01 µM
